In US4804751A, “Polycyclic hydrocarbon succinimides with psychotropic activity” (American Home Products Corporation, priority 1987, dated 1989) one finds Ki, Active at and inhibition data, which are given here for three compounds.

Counter-ions that a name gives are not always drawn. Like-named read-outs stand apart in the source and are kept apart here.

Experiment [1] addresses T1, 5-HT-1A serotonin receptor (Rattus norvegicus, UniProt P19327).
T1 construct: Hippocampal tissue is dissected and homogenized on ice in 40 vols of buffer; from tissue; host or cells: rat hippocampus, washed membrane homogenate
T1 sequence (P19327 1-422): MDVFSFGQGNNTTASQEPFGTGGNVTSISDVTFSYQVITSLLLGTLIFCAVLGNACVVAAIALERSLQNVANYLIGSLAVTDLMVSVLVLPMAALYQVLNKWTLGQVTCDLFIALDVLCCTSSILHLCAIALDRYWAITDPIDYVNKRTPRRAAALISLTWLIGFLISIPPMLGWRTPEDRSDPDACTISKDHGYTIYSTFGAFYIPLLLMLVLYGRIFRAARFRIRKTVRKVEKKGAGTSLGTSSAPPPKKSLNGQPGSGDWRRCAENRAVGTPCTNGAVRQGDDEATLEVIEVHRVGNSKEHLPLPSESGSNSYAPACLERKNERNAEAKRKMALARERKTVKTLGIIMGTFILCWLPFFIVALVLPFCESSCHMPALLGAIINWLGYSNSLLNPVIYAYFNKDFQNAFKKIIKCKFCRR
Nature of the experiment: ex vivo inhibition of 5-HT-1A serotonin receptor binding (3H-8-OH-DPAT, hippocampal membranes). Here is the method:
The assay is carried out as follows:
Several groups of rats (4-6 rats/group) are injected with test compound or the appropriate vehicle. Thirty minutes later, unless otherwise noted, rats are decapitated and their brains removed. Various brain regions are dissected and rapidly frozen and maintained at -70° C. until used.
The homogenate is then centrifuged at 20,000 rpm (RC5-B; 50,000 g) and the supernatant discarded. […] The pellet is then resuspended in 100 vols of buffer B (50 mM Tris HCl, pH=7.7 containing 0.1% ascorbate, 10 μM pargyline and 4 mM CaCl2) and sonicated. An aliquot is taken for protein determination by the Lowry method and the remainder stored frozen at -70° C. until used.
Specific binding obtained in vehicle-treated rats is compared to that obtained in animals receiving a single or various doses of test compound and expressed as percent of control.

Experiment [2] concerns conditioned avoidance responding in rats. Kind of experiment: conditioned avoidance (shelf-jump response) test. The note with it: i.p.; Table 1.
Experimental: A test designed to determine the potential antipsychotic activity of the compounds of the invention is the conditioned avoidance (shelf-jump response) test.
This test is carried out as follows:
Male CD rats (Charles River) maintained at approximately 400-450 gm body weight are used. […] A moveable wall, controlled by a motor, determines whether the rat has access to the shelf at any time during the experiment. The experimental chamber also contains a house light and sonalert. A steel grid floor in the main chamber is wired for presentation of electric shock. Each trial consists of a fifteen-second warning tone (conditioned stimulus), continuing for an additional fifteen seconds accompanied by electric shock (unconditioned stimulus). A response (jumping onto the exposed shelf of the upper chamber) occurring during the initial fifteen-second warning tone is considered an avoidance response, while a response occurring during shock delivery is considered an escape response. Trials are presented on a fixed interval schedule of one minute. The session consists of thirty-six trials. Animals are run twice weekly with control sessions always preceding a drug run, and with at least one day intervening. Compounds are administered i.p. or p.o. at appropriate pre-treatment times to a minimum of five rats at each dose level over a range of doses.
The following experimental parameters are recorded by computer: (1) the number of avoidance responses, (2) the number of escape responses, and (3) the number of trials in which no response occurred.
Response counts are summed over all subjects at a given dose. […] This number is expressed as a percentage of the total trials. Control performance is arbitrarily assigned a value of 100% for avoidance and the dose calculated to produce a 50% block in avoidance responding (AB50) is obtained from a dose-effect regression line fitted by the method of least squares. Potential anti-psychotic compounds suppress avoidance responding and increase escape responding.
In experiment [3] the target is limbic D-2 dopamine receptor (Rattus norvegicus, UniProt P61169). Nature of the experiment: biochemical. The note with it: read-out: Limbic D-2 Binding, inhibition.
The mark [4] stands for this setting: Table 3, rat hippocampal tissue, 3H-8-OH-DPAT, read-out: Inhibition Constant (Ki).

Sequence of limbic D-2 dopamine receptor (P61169 whole entry): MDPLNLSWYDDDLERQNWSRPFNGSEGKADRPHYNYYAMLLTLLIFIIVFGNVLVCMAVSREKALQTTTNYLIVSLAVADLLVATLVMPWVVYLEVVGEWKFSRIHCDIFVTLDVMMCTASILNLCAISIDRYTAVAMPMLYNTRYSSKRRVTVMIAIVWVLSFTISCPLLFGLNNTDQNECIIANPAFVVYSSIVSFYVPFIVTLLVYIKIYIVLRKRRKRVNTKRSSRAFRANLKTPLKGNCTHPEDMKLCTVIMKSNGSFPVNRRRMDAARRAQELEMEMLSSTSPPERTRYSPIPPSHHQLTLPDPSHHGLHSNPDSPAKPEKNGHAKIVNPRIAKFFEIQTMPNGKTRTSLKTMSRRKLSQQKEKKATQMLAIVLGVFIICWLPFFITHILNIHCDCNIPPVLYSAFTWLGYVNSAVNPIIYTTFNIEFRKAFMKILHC

Regarding `O=C1N(CCCCN2CCN(c3ncccn3)CC2)C(=O)C23C4C=CC(C4)C12C1C=CC3C1` (centres unmarked) [Example 1, 1,4,5,8-Tetrahydro-10-[4-[4-(2-pyrimidinyl-1-piperazinyl]butyl]-4a,8a-(methaniminomethano)-1,4:5,8-dimethanonaphthalene-9,11-dione, dihydrochloride, hemihydrate], the Ki (usually a dissociation constant, usually derived from enzyme kinetics or from competition with a known ligand) in experiment [1] (setting [4]) turned out to be 14 nM. In experiment [2], this compound displayed an Active at of 40 mg/kg. Also, in experiment [3], the inhibition (usually the relative decrease from the control value, in per cent) at 1 µM turned out to be 53%.

`O=C1N(CCCCN2CCN(c3cnccn3)CC2)C(=O)C23C4C=CC(C4)C12C1C=CC3C1` (centres unmarked) [Example 3, 1,4,5,8-Tetrahydro-10-[4-[4-(2-pyrazinyl)-1-piperazinyl]butyl]-4a,8a-(methaniminomethano)-1,4:5,8-dimethanonaphthalene-9,11-dione, dihydrochloride, sesquihydrate]: in experiment [1], the affinity corresponds to a Ki of 12 nM. Moreover, the Active at in experiment [2] was found to be 40 mg/kg. The inhibition at 1 µM in experiment [3] was 63%.

Regarding `O=C1N(CCCCN2CCN(c3ncccn3)CC2)C(=O)C23C4CCC(C4)C12C1CCC3C1` (centres unmarked) [Example 4, Octahydro-10-[4-[4-(2-pyrimdinyl)-1-piperazinyl]butyl]-4a,8a-(methaniminomethano)-1,4:5,8-dimethanonaphthalene-9,11-dione, dihydrochloride], the Ki in experiment [1] (setting [4]) is 7 nM. This compound also came in with an Active at in experiment [2] of 40 mg/kg.
